Several values for one entry are separate records, joined by “and”; a condition that tells them apart may be missing. Equal entries are not always repeated. Non-standard residues stand in square brackets, D forms with d. No end group written: not given here. *: point of attachment. Boc = CC(C)(C)OC(=O)*; OBn = c1ccc(CO*)cc1; For = O=C*
Columns and labels:
MRGPRX3 = biological target: T1, MRGPRX3 (Homo sapiens, UniProt Q96LB0); experiment: Ca2+ response of HEK cells expressing MRGPRX3; type: cell-based
T1 construct: expressed in transfected cells; host or cells: HEK cells

human keratinocytes = experiment: Ca2+ response of primary human keratinocytes; type: cell-based
MrgprA6 = biological target: T2, MrgprA6 (Mus musculus, UniProt Q91ZC6); experiment: Ca2+ response of cells expressing mouse MrgprA6; type: cell-based
T2 construct: expressed in transfected cells; host or cells: HEK293 (transient, pcDNA3.1)
T2 sequence (Q91ZC6 1-301): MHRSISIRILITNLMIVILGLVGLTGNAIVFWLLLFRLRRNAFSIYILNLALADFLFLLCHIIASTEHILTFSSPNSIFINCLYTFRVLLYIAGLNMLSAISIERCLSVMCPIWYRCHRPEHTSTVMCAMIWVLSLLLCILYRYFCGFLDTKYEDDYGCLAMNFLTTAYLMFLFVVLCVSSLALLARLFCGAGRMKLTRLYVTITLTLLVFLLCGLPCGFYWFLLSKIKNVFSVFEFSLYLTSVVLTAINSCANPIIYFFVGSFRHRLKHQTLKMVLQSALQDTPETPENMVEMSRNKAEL

[1] = system: MrgprA1, A4, A12, B3, and B6; experiment: Ca2+ response of cells expressing other keratinocyte Mrgprs; type: cell-based, mouse
MrgprA1 [2] = biological target: T3, MrgprA1 (Mus musculus, UniProt Q91WW5); experiment: Microscale thermophoresis binding assay, MRGPRA1
T3 construct: expressed in transfected cells; whole cells or crude membrane fraction
T3 sequence (Q91WW5 1-304): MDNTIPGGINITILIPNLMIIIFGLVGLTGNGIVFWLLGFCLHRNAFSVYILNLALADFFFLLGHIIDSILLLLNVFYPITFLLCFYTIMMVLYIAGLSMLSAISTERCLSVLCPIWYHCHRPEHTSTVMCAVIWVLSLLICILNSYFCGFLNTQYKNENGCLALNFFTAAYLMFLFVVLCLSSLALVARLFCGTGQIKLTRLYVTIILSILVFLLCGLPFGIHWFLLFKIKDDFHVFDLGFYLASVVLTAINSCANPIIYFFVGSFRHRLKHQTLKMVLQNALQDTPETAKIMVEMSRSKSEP
Protocol: (§1) Binding isotherms for MRGPRA1, MRGPRX4, and MRGRPC11 towards various ligands were determined by microscale thermophoresis with the NanoTemper monolith NT.115 instrument^27. Ligands were pre-incubated with 10 μM of the GFP-tagged receptor of interest for 5 minutes at room temperature in binding buffer (20 mM Tris and 150 mM NaCl at pH 8.8). Receptors were crudely purified as a membrane fraction from cells stably expressing the receptor^45. Haem metabolites were freshly dissolved in 0.1 M NaOH in dim light and then diluted into assay buffer. Lyophilized BAMS-22 was dissolved in binding buffer. The pH of each ligand was evaluated prior to incubation with a receptor. Samples were loaded into NT.115 Hydrophobic-Treated Capillaries from NanoTemper. Microscale thermophoretic experiments were executed using 20% LED power and 15% MST power. KDs were calculated using the law of mass action with data from three independent experiments. Binding between bilirubin and receptors was evaluated purely thermophoretically, whereas binding between BAMS-22 and MRGPRC11 was evaluated by T-Jump. Samples with dramatic deviations in initial fluorescence were excluded.

mice = experiment: Acute itch behaviour after injection (scratching bouts); type: in vivo, mouse; settings: bilirubin injection
MRGPRX4 [3] = biological target: T4, MRGPRX4 (Homo sapiens, UniProt Q96LA9); experiment: FLIPR calcium assay (Flexstation3), HEK cells stably expressing MrgprX4; type: cell-based; parameters: expressed in transfected cells; whole cells or crude membrane fraction; settings: FLIPR calcium dye, FIG. 18B
Protocol: (§2) EC50s were calculated using HEK cells stably expressing either MrgprA1 or MrgprX4. Cells were loaded with FLIPR calcium imaging dye, and a Flexstation3 machine (Molecular Devices) was used for reading changes in fluorescence. Wells were run in triplicate, and all values from each plate were normalized to the highest responding well. […] The x-axis depicts a modified logarithmic scale. […] FIG. 18B is a graph depicting the EC50 for MrgprX4 for bilirubin is approximately 3 μM.

MRGPRX4 [4] = biological target: T4, MRGPRX4; experiment: Fura 2-AM calcium imaging, EC50 determinations, MRGPRX4 HEK293 cells; type: cell-based; parameters: expressed in transfected cells; whole cells or crude membrane fraction; settings: HEK293 cells, Fura 2-AM; interval [44, 87]; read-out: EC50 calcium response MRGPRX4
Protocol: (§3) Cells were imaged in calcium imaging buffer (CIB; 10 mM HEPES, 1.2 mM NaHCO3, 130 mM NaCl, 3 mM KCl, 2.5 mM CaCl2, 0.6 mM MgCl2, 20 mM glucose, and 20 mM sucrose at pH 7.4 and 290-300 mOsm). To monitor changes in intracellular [Ca^2+] ([Ca^2+]i), cells were loaded with either Fura 2-AM (HEK293 cells) or Fluo 4-AM (DRG neurons and mast cells) for 30 min in the dark at 37° C. in CIB just prior to imaging. With Fura 2-AM, emission at 510 nm was monitored from excitation at both 340 nm and 380 nm. With Fluo 4-AM, emission at 520 nm was monitored from excitation at 488 nm. Cells were identified as responding if the intracellular [Ca^2+] rose by either 50% compared to baseline or 50% compared to the [Ca^2+]i change assayed during addition of 50 mM KCl (neurons only). Damaged, detached, high-baseline, and motion-activated cells were excluded from analysis.
(§4) In initial screens, HEK293 cells stably expressing the murine G-protein alpha-subunit Gα15, a unique Gα protein that non-selectively couples a large variety of GPCRs to phospholipase C^30, were plated on poly-D-lysine-coated coverslips and transiently transfected with constructs encoding the MRGRPR of interest. 12-24 h later, cells were loaded with the Fura 2-AM. Unless otherwise specified, compounds were perfused into the imaging chamber for approximately thirty seconds after a baseline period was established. Response was then monitored at 5 s intervals for an additional 60 s.
HEK293 cells stably expressing either MRGPRA1, MRGPRX4, and MRGRPC11 were seeded in poly-D-lysine-coated 96-well plates at 10,000 cells/well. Cells were loaded with Fura 2-AM, washed twice, and maintained in CIB. Haem metabolites were freshly dissolved in DMSO in dim light and then diluted into a buffer comprised of 20 mM Tris and 150 mM NaCl at pH 8.8. Potential changes in pH were evaluated prior to each experiment. EC50 values were determined from dose-responses performed in triplicate, repeated 2-4 times. […]

MrgprA1 [5] = biological target: T3, MrgprA1; experiment: Fura 2-AM calcium imaging, EC50 and IC50 determinations, MRGPRA1 HEK293 cells; type: cell-based; settings: HEK293 cells, Fura 2-AM; interval [96, 220]; read-out: EC50 calcium response MRGPRA1
Protocol: as §3, §4
HEK293 cells stably expressing either MRGPRA1, MRGPRX4, and MRGRPC11 were seeded in poly-D-lysine-coated 96-well plates at 10,000 cells/well. Cells were loaded with Fura 2-AM, washed twice, and maintained in CIB. Haem metabolites were freshly dissolved in DMSO in dim light and then diluted into a buffer comprised of 20 mM Tris and 150 mM NaCl at pH 8.8. Potential changes in pH were evaluated prior to each experiment. EC50 values were determined from dose-responses performed in triplicate, repeated 2-4 times. To determine potential antagonism by QWF against bilirubin, cells were treated with varying doses of QWF for 1 min in CIB prior to application of agonist.

MRGPRX4 [6] = biological target: T4, MRGPRX4; experiment: Microscale thermophoresis binding assay, MRGPRX4; parameters: expressed in transfected cells; whole cells or crude membrane fraction
Protocol: as §1

MrgprA1 [7] = biological target: T3, MrgprA1; experiment: FLIPR calcium assay (Flexstation3), HEK cells stably expressing MrgprA1; type: cell-based; settings: HEK cells, FLIPR calcium dye, FIG. 18A
Protocol: as §2

DRG neurons = experiment: Calcium imaging of dissociated DRG neurons; type: cell-based, mouse; settings: Venn diagram FIG. 30A; Overlap=13
[8] = biological target: T5, murine MRGPRA1 stably expressed in HEK293 cells (GFP-tagged, pEGFP-N1) (mouse, UniProt Q91WW5 1-304); experiment: cell-based or functional assay
T5 sequence (looked up): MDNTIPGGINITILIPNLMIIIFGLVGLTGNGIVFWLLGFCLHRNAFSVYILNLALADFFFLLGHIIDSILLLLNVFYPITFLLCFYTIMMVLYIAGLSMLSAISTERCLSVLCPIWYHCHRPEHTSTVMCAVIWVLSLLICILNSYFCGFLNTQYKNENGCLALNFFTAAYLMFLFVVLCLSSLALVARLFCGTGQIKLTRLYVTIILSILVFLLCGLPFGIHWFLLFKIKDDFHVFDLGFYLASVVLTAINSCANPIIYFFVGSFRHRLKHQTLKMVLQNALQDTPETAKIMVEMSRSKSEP

T4 sequence (Q96LA9 whole entry): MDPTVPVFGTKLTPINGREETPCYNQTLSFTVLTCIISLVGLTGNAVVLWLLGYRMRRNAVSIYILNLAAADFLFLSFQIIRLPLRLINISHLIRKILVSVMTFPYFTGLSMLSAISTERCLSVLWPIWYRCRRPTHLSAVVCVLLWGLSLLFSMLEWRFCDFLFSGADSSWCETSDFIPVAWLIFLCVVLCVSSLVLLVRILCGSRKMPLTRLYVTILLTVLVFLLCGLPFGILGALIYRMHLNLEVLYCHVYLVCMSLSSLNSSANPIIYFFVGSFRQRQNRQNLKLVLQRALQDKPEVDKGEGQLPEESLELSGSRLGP
T1 sequence (Q96LB0 whole entry): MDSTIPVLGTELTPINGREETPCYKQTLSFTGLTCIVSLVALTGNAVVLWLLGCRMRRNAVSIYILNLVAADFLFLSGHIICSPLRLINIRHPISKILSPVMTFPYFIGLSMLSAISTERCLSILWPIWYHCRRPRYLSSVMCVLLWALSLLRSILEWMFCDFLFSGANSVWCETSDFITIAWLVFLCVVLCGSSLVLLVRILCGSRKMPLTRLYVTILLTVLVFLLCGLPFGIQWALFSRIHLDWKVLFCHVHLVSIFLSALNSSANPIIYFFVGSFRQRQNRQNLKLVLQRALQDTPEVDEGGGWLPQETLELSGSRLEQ

hBD3: synthetic human Beta-defensin 3, antimicrobial peptide (GIINTLQKYYCRVRGGRCAVLSCLPKEEQIGKCSTRGRKCCRRKK; ends and bridges not checked; cysteine pairing not given here)
Ca2+ response of MRGPRX3 HEK cells (MRGPRX3): robust Ca^2+ response | percentage of keratinocytes that responded (human keratinocytes; primary human keratinocytes after MRGPRX3 siRNA knock down): < 20% | percentage of keratinocytes that responded (human keratinocytes; primary human keratinocytes, control): > 80%

mBD14: mouse Beta-Defensin-14, mouse homologue of hBD3 (FLPKTLRKFFCRIRGGRCAVLNCLGKEEQIGRCSNSGRKCCRKKK; ends and bridges not checked; cysteine pairing not given here)
activation of MrgprA6 (MrgprA6): strongly activated | response of MrgprA1, A4, A12, B3, and B6 [1]: did not show any response

C=CC1=C(C)/C(=C/c2[nH]c(Cc3[nH]c(/C=C4\NC(=O)C(C)=C4C=C)c(C)c3CCC(=O)O)c(CCC(=O)O)c2C)NC1=O [bilirubin, bilirubin IXa]
Kd (MrgprA1 [2]): 92.9 ± 15 µM | scratching of Cluster−/− animals less than wild type (mice): approximately 75% | EC50 (MRGPRX4 [3]): ~3 µM and 2 µM | EC50 (MRGPRX4 [4]): 61.9 µM | EC50 (MrgprA1 [5]): 146 µM | Kd (MRGPRX4 [6]): 54.4 ± 13 µM | EC50 (MrgprA1 [7]): ~49 µM | total neurons activated by the compound alone (DRG neurons): 7

B1: BOC-GLN-D-(FORMYL)TRP-PHE-BENZYLESTER (QWF) (peptide)
peptide: Boc-Gln-[dW](For)-Phe-OBn
IC50 for inhibition of bilirubin-induced Ca^2+ signal in MRGPRA1-expressing HEK cells (200 µM bilirubin) [8]: 2.9 µM

Reference: patent US11442059B2, “Method for treating a chronic itch condition by administering small molecule MrgprX4 antagonists” (The Johns Hopkins University, priority 2017, dated 2022)
